In patent US20240165093A1, “METHODS FOR TREATING FAMILIAL CHYLOMICRONEMIA SYNDROME” (AMRYT PHARMACEUTICALS INC., priority 2021, published 2024):
Where “and” joins values, the source holds several entries; their conditions need not be identical. Identical values can stand only once.

Legend:
[1] = test system: patients with Familial Chylomicronemia Syndrome (FCS); experiment: Clinical study in FCS patients: safety and tolerability (adverse events, liver function tests, maximum dose); type: in vivo, human
Description: (§1) Treatment was initiated at 5 mg once daily, and the dose titrated based on acceptable safety/tolerability. After a minimum of 2 weeks at 5 mg once daily the dose was then titrated at a minimum of 4-week intervals to 10 mg, 20 mg, 40 mg, and 60 mg/day (e.g., as shown in the table below) or until an individually determined maximum dose (e.g., in the range of 5-60 mg/day) was reached based on lipid profile, and safety/tolerability. Dose adjustments were also made according to liver transaminase levels. If subjects experienced confirmed alanine aminotransferase (ALT) or aspartate aminotransferase (AST) elevations between 3-5×ULN, or >100 U/L but <200 U/L above the baseline value, the dose of lomitapide was reduced to the previously tolerated dose level, with the possibility to re-escalate dose once transaminase elevations were resolved. Once a maximum dose was established, patients remained on this dose up to Week 26.
(§2) Lipid levels and safety indices, including liver function tests, were evaluated at baseline, before each dose increase, and then every 4 weeks until week 26.
(§3) Secondary endpoints include other lipid parameters, hepatic fat and liver stiffness and Chylomicron kinetics of Lomitapide in combination with other lipid lowering agents in term of changes at 26 weeks from baseline. Including: • a) Percent change in TC, non-HDL-C, LDL-C, VLDL, Lp(a), as well as apolipoproteins B and A1. • b) Safety of Lomitapide in patients with FCS assessed by changes in laboratory parameters, electrocardiogram, physical examinations and weight. • c) Record of episodes of pancreatitis • d) Change in hepatic fat liver stiffness measured by MRI and/or Transient Elastography (Fibroscan). • e) Chylomicron kinetics.
Adverse events (AEs) were coded using MedDRA, Version 11.0. AEs were judged by the investigators as not related, unlikely, possibly, probably or definitely related to study drug and were reviewed regularly by an independent Data and Safety Monitoring Board.

[2] = test system: patients with Familial Chylomicronemia Syndrome (FCS); experiment: Clinical study in FCS patients: hepatic fat (MRI), liver stiffness, NFS and FIB-4 scores; type: in vivo, human
Excerpt: as §3
Percentage hepatic fat was determined by magnetic resonance imaging (MRI) at baseline and Week 26. The MRI protocol included a dual-phase sequence and the IDEAL IQ sequence. Post-processing software, provided by the manufacturer, was used to generate fat fraction maps. A radiologist trained in abdominal imaging imaged four 1 cm^2 regions of interest (ROIs) to measure in-phase signal intensities of the liver parenchyma. ROIs were copied from the in-phase images to the opposed-phase to ensure identical size and location. Focal hepatic lesions, major branches of portal or hepatic veins, and artifacts were avoided. The mean of the signal intensity of the liver was calculated as the average value of the four signal intensities of the liver parenchyma both in the in-phase and in the opposed phase. The hepatic fat fraction was then calculated with the following formula: 100×(signal intensityIP−signal intensityOP)/(2×signal intensityIP). Finally, ROIs were also copied in the HFF Axial IDEAL IQ map to ensure identical size and location (this map was not available in one patient). The liver ROIs placed on the IDEAL-IQ fat fraction reconstruction were used to generate estimates of percentage fat.
Noninvasive quantification of liver stiffness (LSM) in kPa (estimated fibrosis score: F0 to F1: 2-7 kPa; F2: 7.5-10 kPa; F3: 10-14 kPa; F4: […]) was measured by ultrasound-based transient elastography using FibroScan® or shear wave elastography. Non-alcoholic fatty liver disease fibrosis score (NFS) and fibrosis-4 (FIB-4) score were calculated according to Angulo et al (2007) (Angulo P, Hui J M, Marchesini G, et al. The NAFLD fibrosis score: a noninvasive system that identifies liver fibrosis in patients with NAFLD. Hepatology 2007; 45(4), which is incorporated by reference herein.
Numeric parameters were expressed as median values and 97.5% confidence intervals, while dichotomous variables were expressed as proportions. Differences in numeric parameters were evaluated by the Exact Wilcoxon-Mann-Whitney Test (R CRAN “coin” package). Differences in proportions were evaluated by the Chi Square test. Percentual reductions of numeric variables at Week 26 were expressed as median values (with 97.5% confidence intervals) of the individual patients' variations from Week 0. Correlation of TG percent reduction with lomitapide dose was calculated by partial Spearman's correlation adjusting for TG baseline absolute values (R CRAN ‘ppcor’ package). All calculations were performed by the R statistical software Version 4.04 under the RStudio Version 1.3.1093 interface.

[3] = test system: patients with Familial Chylomicronemia Syndrome (FCS); experiment: Clinical study of lomitapide in patients with FCS: fasting lipids, lipoproteins, pancreatitis episodes (26 weeks); type: in vivo
Excerpt: This clinical study evaluated the safety, tolerability, and efficacy of Lomitapide in patients with Familial Chylomicronemia Syndrome (FCS).
Patients were screened for eligibility between 12 to 6 weeks before the first dose of Lomitapide (screening period). After screening period, all enrolled patients entered a run-in phase of at least 6 weeks during which lipid-lowering therapy, daily dietary supplementation of vitamin E, essential fatty acids and a low-fat diet are instituted and stabilized. At the end of the run-in phase, the patients entered into a 26-week efficacy phase, during which they receive lomitapide in addition to their lipid-lowering therapy. Patients must follow a diet comprising <10% energy from fat per day during all the study.
All patients who meet the eligibility criteria, and after 6-week diet period (run-in) were treated with Lomitapide 5 mg, 10 mg, 15 mg, 20 mg, 30 mg, 40 mg, 50 mg up to 60 mg daily based on lipid profile and tolerability. Patients remain at their maximum dose until the end of 26 weeks.
as §1, §2
The Primary Endpoint was percent change in tryglycerides (TG) at the maximum tolerated dose compared to baseline after 26 weeks of treatment in combination with other lipid lowering therapy in patients with Familial Chylomicronemia Syndrome (FCS).
as §3
To enable collection of data for the primary and other endpoints a fasting lipid and safety panel, including liver function tests, was obtained at baseline, prior to each dose escalation, and every 4 weeks thereafter until Week 26. Blood was drawn at baseline and at each visit following a 12 hour fast. Testing included a standard metabolic panel, a complete blood count, urinalysis. Ten patients underwent a metabolic study to determine postprandial chylomicron metabolism and fatty acid profile. Available samples were separated by centrifugation and immediately stored at −80° C. and were shipped in dry ice at the end of the study for analysis.
Lipid and lipoprotein analyses were conducted on serum samples. Total cholesterol (TC), high density lipoprotein-cholesterol (HDL-C), and TGs were measured enzymatically. Non-HDL-C was calculated by subtracting HDL-C levels from TC levels. ApoA-I, apoB and Lp(a) were measured by immunonephelometry. […]

[4] = 18 subjects, baseline to Week 26

## O=C(NC1CCN(CCCCC2(C(=O)NCC(F)(F)F)c3ccccc3-c3ccccc32)CC1)c1ccccc1-c1ccc(C(F)(F)F)cc1 [lomitapide, N-(2,2,2-trifluoroethyl)-9-[4-[4-[[[4′(trifluoromethyl) [1,1′-biphenyl]-2-yl]carbonyl]amino]-1-piperidinyl]butyl]-9H-fluorene-9carboxamide]
[1]; 18 enrolled
  patients completing the study (26 weeks): 100%
[1]; 26 weeks
  elevations in bilirubin or alkaline phosphatase levels: No subject experienced elevations
[1]; 26 weeks, in words
  tolerability of treatment: well tolerated
[1]; increases managed by dose reduction or temporary interruption
  permanent discontinuation due to liver transaminase elevations: No subject discontinued treatment permanently
[1]; individually determined by lipid profile, safety and tolerability, by Week 26, 18 subjects
  median lomitapide maximum dose: 35 mg/day
[1]; mostly gastrointestinal tolerability and liver enzyme elevations
  severity of adverse events: mild to moderate
[2]; 9 subjects, Week 26 (baseline 12.0)
  Hepatic fat content on MRI, median at Week 26: 32.5%
[2]; 9 subjects, baseline to Week 26
  Hepatic fat content on MRI, individual change from baseline, %: +146.4%
[2]; 14 subjects, Week 26 (baseline 5.7)
  LSM (liver stiffness measurement), median at Week 26: 5.5 kPa
[2]; 18 subjects, Week 26 (baseline 0.76)
  FIB-4, median at Week 26: 1.03
[2]; 18 subjects, Week 26 (baseline 0.786)
  NFS, median at Week 26: 0.428
[2]; [4]
  FIB-4, individual change from baseline, %: +38.44%
  NFS, individual change from baseline, %: −51.69%
[2]; baseline to Week 26, in words
  non-invasive liver fibrosis measurements (liver stiffness, FIB-4 and NFS scores), change: No significant changes
[2]; liver MRI
  hepatic fat content at week 26 in 3 patients with an increase: 30-50%
[3]; 26 weeks, all patients with history of acute pancreatitis
  episodes of acute pancreatitis or severe abdominal pain during treatment: No patient experienced an episode of acute pancreatitis or severe abdominal pain
[3]; Week 26
  range of TG decrease in the six subjects with decreases up to 50%: 18.25-49.71%
[3]; Week 26, n=18, p<0.0001
  reduction in TG levels from baseline: 70.5%
[3]; Week 26, nine of 18 patients
  patients with TG reduction >70%: 50%
[3]; Week 26, of 18
  subjects achieving TG levels <750 mg/dL (<8.5 mmol/L): Thirteen
[3]; Week 26, six of 18 subjects
  subjects with decreases in TG up to 50%: 33.3%
[3]; Week 26, ten of 18
  patients achieving TG levels <500 mg/dL (<5.6 mmol/L): 55.6%
[3]; Week 26, twelve of 18 patients
  patients with TG reduction >50%: 66.7%
[3]; daily dose
  mean dose when patients crossed the threshold of <500 mg/dL triglycerides: 27 mg
  mean dose when patients crossed the threshold of <750 mg/dL triglycerides: 24 mg
  mean dose when patients crossed the threshold of <1000 mg/dL triglycerides: 18 mg
  median dose when patients crossed the threshold of <500 mg/dL triglycerides: 20 mg
  median dose when patients crossed the threshold of <750 mg/dL triglycerides: 20 mg
  median dose when patients crossed the threshold of <1000 mg/dL triglycerides: 10 mg
[3]; in words
  Lp(a) levels, difference from baseline to Week 26: No significant differences
  hsCRP levels, difference from baseline to Week 26: No significant differences
[3]; in words, over 26 weeks
  fasting triglyceride levels compared to baseline: significant reduction
[3]; n=14 of 18
  patients achieving triglyceride plasma levels <1000 mg/dL: 77.8%
[3]; n=18, Week 26 (baseline 1.2)
  hsCRP, median at Week 26: 1.24 mg/L
[3]; n=18, Week 26 (baseline 6)
  Lp(a), median at Week 26: 5.5 nmol/L
[3]; n=18, Week 26 (baseline 16)
  HDL-C, median at Week 26: 18 mg/dL
[3]; n=18, Week 26 (baseline 81.85)
  ApoB, median at Week 26: 39.25 mg/dL
[3]; n=18, Week 26 (baseline 93.7)
  ApoA-I, median at Week 26: 74.95 mg/dL
[3]; n=18, Week 26 (baseline 184)
  non-HDL-C, median at Week 26: 90.0 mg/dL
[3]; n=18, Week 26 (baseline 205.5)
  TC, median at Week 26: 94 mg/dL
[3]; n=18, baseline to Week 26
  ApoA-I, median of individual changes from baseline %: −28.1% and −23.0%
  ApoB, median of individual changes from baseline %: −43.8%
  HDL-C, median of individual changes from baseline %: 20.7% and +20.7%
  Lp(a), median of individual changes from baseline %: +40.5%
  TC, median of individual changes from baseline %: −51.7%
  hsCRP, median of individual changes from baseline %: 9.8%
  non-HDL-C, median of individual changes from baseline %: −50.0%
[3]; n=18, baseline to Week 26, primary endpoint
  TG, median of individual changes from baseline %: −70.5%
[3]; n=18 FCS patients, fasting, lomitapide at maximum tolerated dose plus lipid-lowering therapy, Week 26 (baseline 1803.5)
  TG, median at Week 26: 305.0 mg/dL
